Source: publication PMC12434667 (Journal of Medicinal Chemistry, 2025)
“And” between values parts separate entries of the source, which are not always exact repeats. Identical values can stand only once.

Assays:
[1] = Monkey PK; type: in vivo
[2] = system: pRB; test: Tumor AlphaLISA; type: in vivo, mouse; conditions: HCC1569 xenograft, sustained
[3] = system: human PBMC cells; test: Tandem mass tag deep proteome profiling; type: cell-based; conditions: 800 nM, 8 h, over 8000 proteins
[4] = molecular target: CDK4 (Homo sapiens, UniProt P11802); test: 24-hr western blot of CDK4 degradation in TOV21G cells; type: cell-based; conditions: read-out: TOV21G CDK4 DC50
Sequence of CDK4 (P11802 whole entry): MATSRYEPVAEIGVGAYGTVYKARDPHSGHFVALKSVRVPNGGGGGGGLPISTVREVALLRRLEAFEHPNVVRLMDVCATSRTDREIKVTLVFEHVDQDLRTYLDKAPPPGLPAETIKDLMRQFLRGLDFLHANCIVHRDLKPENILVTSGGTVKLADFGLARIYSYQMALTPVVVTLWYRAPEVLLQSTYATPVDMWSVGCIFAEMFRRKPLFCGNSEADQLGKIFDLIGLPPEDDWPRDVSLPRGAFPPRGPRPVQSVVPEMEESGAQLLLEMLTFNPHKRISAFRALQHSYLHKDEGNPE

[5] = system: pRB S807/811; test: 24-hr AlphaLISA of pRB inhibition in MKN1 cells; type: cell-based; conditions: Homo sapiens, MKN-1, 24 h
[6] = molecular target: CDK1 (Homo sapiens, UniProt P06493); test: 24-hr AlphaLISA of CDK1 degradation in TOV21G cells; type: cell-based; conditions: vs CDK2 degradation
Sequence of CDK1 (P06493 whole entry): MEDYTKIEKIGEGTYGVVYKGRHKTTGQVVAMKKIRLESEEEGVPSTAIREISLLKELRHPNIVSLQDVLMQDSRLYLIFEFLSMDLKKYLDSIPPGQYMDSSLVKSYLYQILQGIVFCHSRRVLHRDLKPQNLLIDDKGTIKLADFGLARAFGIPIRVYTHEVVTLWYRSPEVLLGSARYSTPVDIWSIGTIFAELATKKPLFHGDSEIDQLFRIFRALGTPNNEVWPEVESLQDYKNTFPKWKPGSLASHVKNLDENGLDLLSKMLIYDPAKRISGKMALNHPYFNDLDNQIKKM

[7] = Plasma protein binding; type: in vitro ADME; conditions: mouse
[8] = molecular target: CDK9 (Homo sapiens, UniProt P50750); test: 24-hr AlphaLISA of CDK9 degradation in TOV21G cells; type: cell-based
Sequence of CDK9 (P50750 whole entry): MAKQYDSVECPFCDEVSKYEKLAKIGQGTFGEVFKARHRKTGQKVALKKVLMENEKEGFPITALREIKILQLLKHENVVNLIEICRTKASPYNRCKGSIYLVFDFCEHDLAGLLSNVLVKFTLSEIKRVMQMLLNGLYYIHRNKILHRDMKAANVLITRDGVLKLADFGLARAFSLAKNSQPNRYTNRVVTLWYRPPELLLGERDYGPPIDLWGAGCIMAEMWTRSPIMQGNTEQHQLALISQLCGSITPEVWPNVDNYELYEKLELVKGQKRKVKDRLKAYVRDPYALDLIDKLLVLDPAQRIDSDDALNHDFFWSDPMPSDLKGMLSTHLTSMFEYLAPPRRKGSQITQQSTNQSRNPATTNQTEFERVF

[9] = system: HCC1569 tumor xenograft; test: HCC1569 tumor xenograft efficacy; type: in vivo, mouse; conditions: 28 days; for day 28 %dTV (mean ± SEM): HCC1569 xenograft mice
[10] = Dog PK; type: in vivo
[11] = Plasma PK in HCC1569 xenograft model; type: in vivo; conditions: mouse HCC1569 xenograft; for AUC0–24h free: mouse PPB 98.02%
[12] = Rat PK; type: in vivo; conditions: plasma, po, 10 mg/kg
[13] = molecular target: CDK6 (Homo sapiens, UniProt Q00534); test: 24-hr western blot of CDK6 degradation in TOV21G cells; type: cell-based; conditions: read-out: TOV21G CDK6 DC50
Sequence of CDK6 (Q00534 whole entry): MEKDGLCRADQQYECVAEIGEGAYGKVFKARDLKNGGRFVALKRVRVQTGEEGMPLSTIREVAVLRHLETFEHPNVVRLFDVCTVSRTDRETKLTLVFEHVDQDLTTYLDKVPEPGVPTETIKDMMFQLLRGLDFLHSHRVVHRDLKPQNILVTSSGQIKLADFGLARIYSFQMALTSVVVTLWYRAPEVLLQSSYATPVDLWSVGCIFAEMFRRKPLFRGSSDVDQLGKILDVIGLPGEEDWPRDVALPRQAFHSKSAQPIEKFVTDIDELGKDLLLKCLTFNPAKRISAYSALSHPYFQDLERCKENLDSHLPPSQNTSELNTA

Which results are given for `C[C@]1(O)CCCN(c2nc(Nc3ccc(S(=O)(=O)N[C@@H]4CCN(CC5CCN(c6ccc(C7CCC(=O)NC7=O)cc6F)CC5)C[C@@H]4F)cc3F)ncc2C(F)(F)F)C1` (stereo partly drawn) [Compound 37, N-[(3S,4R)-1-[[1-[4-(2,6-Dioxo-3-piperidyl)-2-fluoro-phenyl]-4-piperidyl]methyl]-3-fluoro-4-piperidyl]-3-fluoro-4-[[4-[(3S)-3-hydroxy-3-methyl-1-piperidyl]-5-(trifluoromethyl)pyrimidin-2-yl]amino]benzenesulfonamide]?
monkey F ([1]; IV 0.07 / PO 1 mg/kg, 1 mg/kg): 12%; Vd ([1]; plasma, iv, 0.07 mg/kg): 5.7 L/kg; clearance ([1]; plasma, iv, 0.07 mg/kg): 9.1 mL/min/kg; half-life ([1]; plasma, iv, 0.07 mg/kg): 8.6 h; AUC(0-t) ([1]; plasma, po, 1 mg/kg): 0.25 µM·h; Cmax ([1]; plasma, po, 1 mg/kg): 14 nM; inhibition of pRB in tumor [2]: 90% and > 90%; significantly downregulated proteins [3]: CDK2 as the only significantly downregulated protein; DC50 [4]: > 10000 nM; IC50 ([5]; read-out: MKN1 pRB IC50): 23 nM; IC90 ([5]; read-out: MKN1 pRB IC90): 110 nM; degradation selectivity over CDK1 [6]: > 100 fold; fraction unbound at 30 min, 1 µM [7]: 0.0198; DC50 ([8]; read-out: TOV21G CDK9 DC50, 24 h): > 10000 nM; degradation selectivity over CDK9 ([8]; vs CDK2 degradation): > 500 fold; antitumor activity ([9]; 25 mg/kg PO BID): stable disease (30 to −30% is stable disease (0% = Tumor Stasis)); day 28 %dTV (mean ± SEM) ([9]; 25 mg/kg PO BID): –26 ± 9%; antitumor activity ([9]; 50 mg/kg PO BID): stable disease (30 to −30% is stable disease (0% = Tumor Stasis)); day 28 %dTV (mean ± SEM) ([9]; 50 mg/kg PO BID): –24 ± 10%; antitumor activity ([9]; 50 mg/kg PO QD): stable disease (30 to −30% is stable disease (0% = Tumor Stasis)); dog F ([10]; IV 0.1 / PO 1 mg/kg, 1 mg/kg): 12%; Vd ([10]; plasma, iv, 0.1 mg/kg): 4.2 L/kg; clearance ([10]; plasma, iv, 0.1 mg/kg): 3.9 mL/min/kg; half-life ([10]; plasma, iv, 0.1 mg/kg): 14.4 h; AUC(0-t) ([10]; plasma, po, 1 mg/kg): 0.557 µM·h; Cmax ([10]; plasma, po, 1 mg/kg): 26 nM; AUC0–24h/D ([11]; PO 10 mg/kg BID × 3 days): 624 mg·h/mL; AUC0–24h/D ([11]; PO 25 mg/kg BID × 3 days): 709 mg·h/mL; AUC0–24h free ([11]; PO 25 mg/kg BID × 3 days): 14.2 ng·h/mL; AUC0–24h/D ([11]; PO 50 mg/kg BID × 3 days): 949 mg·h/mL; AUC0–24h free ([11]; PO 50 mg/kg BID × 3 days): 19.0 ng·h/mL; AUC0–24h/D ([11]; PO 50 mg/kg QD × 3 days): 1377 mg·h/mL; AUC0–24h free ([11]; PO 50 mg/kg QD × 3 days): 27.5 ng·h/mL; AUC(0-t) [12]: 3.63 µM·h; Cmax [12]: 261 nM; DC50 [13]: 1280 nM
